Measurements: patent US20060135906A1, “Iontophoretic device and method for administering immune response-enhancing agents and compositions” (priority 2004, published 2006)

Test system: 57BL/6 mice
Experiment: Antibody titers (IgG1, IgG2) in mice given Mtb72F vaccine plus MPL adjuvant
Settings: for antibody titer of IgG1 / antibody titer of IgG2: Mtb72F 10 μg injected, compared with no MPL administered
[1] = day 43, MPL administered iontophoretically (transcutaneous)
[2] = day 43, MPL by intracutaneous injection (MPL-AF or MPL-SE, 20 μg)

monophosphoryl lipid A [MPL]
immune response-enhancing effects (MPL administered iontophoretically, compared with intracutaneous injection): significant immune response-enhancing effects equivalent to those obtained by intracutaneous injection | antibody titer results, iontophoretic delivery compared with intracutaneous injection (day 43, IgG1 and IgG2): nearly identical | antibody titer of IgG1 [1]: significantly higher | antibody titer of IgG2 [1]: significantly higher | antibody titer of IgG1 [2]: significantly higher | antibody titer of IgG2 [2]: significantly higher
